The record followed here is patent US20150246938A1, “NOVEL OLEFIN DERIVATIVE” (SHIONOGI & CO., LTD., priority 2011, published 2015).

The target in this assay is T1, recombinant human ACC2 (Homo sapiens, UniProt O00763).
T1 construct: a cDNA encoding human ACC2 (27-2458) was cloned from human kidney cDNA library (Clontech); His-tag (N); made in house; host or cells: Sf-9 insect cells (Bac-to-Bac baculovirus)
The assay is described as follows: Measurement of inhibitory activity on human ACC2 (MALDI-TOF MS, acetyl CoA to malonyl CoA conversion). The assay is classed as biochemical.

Setting [1] is: inhibition activity on human ACC2, Table 82, read-out: IC50.

pIC50: −log10 of the molar value. Where two headings read alike, the source gives them in different places.

T1 sequence (O00763 27-2458): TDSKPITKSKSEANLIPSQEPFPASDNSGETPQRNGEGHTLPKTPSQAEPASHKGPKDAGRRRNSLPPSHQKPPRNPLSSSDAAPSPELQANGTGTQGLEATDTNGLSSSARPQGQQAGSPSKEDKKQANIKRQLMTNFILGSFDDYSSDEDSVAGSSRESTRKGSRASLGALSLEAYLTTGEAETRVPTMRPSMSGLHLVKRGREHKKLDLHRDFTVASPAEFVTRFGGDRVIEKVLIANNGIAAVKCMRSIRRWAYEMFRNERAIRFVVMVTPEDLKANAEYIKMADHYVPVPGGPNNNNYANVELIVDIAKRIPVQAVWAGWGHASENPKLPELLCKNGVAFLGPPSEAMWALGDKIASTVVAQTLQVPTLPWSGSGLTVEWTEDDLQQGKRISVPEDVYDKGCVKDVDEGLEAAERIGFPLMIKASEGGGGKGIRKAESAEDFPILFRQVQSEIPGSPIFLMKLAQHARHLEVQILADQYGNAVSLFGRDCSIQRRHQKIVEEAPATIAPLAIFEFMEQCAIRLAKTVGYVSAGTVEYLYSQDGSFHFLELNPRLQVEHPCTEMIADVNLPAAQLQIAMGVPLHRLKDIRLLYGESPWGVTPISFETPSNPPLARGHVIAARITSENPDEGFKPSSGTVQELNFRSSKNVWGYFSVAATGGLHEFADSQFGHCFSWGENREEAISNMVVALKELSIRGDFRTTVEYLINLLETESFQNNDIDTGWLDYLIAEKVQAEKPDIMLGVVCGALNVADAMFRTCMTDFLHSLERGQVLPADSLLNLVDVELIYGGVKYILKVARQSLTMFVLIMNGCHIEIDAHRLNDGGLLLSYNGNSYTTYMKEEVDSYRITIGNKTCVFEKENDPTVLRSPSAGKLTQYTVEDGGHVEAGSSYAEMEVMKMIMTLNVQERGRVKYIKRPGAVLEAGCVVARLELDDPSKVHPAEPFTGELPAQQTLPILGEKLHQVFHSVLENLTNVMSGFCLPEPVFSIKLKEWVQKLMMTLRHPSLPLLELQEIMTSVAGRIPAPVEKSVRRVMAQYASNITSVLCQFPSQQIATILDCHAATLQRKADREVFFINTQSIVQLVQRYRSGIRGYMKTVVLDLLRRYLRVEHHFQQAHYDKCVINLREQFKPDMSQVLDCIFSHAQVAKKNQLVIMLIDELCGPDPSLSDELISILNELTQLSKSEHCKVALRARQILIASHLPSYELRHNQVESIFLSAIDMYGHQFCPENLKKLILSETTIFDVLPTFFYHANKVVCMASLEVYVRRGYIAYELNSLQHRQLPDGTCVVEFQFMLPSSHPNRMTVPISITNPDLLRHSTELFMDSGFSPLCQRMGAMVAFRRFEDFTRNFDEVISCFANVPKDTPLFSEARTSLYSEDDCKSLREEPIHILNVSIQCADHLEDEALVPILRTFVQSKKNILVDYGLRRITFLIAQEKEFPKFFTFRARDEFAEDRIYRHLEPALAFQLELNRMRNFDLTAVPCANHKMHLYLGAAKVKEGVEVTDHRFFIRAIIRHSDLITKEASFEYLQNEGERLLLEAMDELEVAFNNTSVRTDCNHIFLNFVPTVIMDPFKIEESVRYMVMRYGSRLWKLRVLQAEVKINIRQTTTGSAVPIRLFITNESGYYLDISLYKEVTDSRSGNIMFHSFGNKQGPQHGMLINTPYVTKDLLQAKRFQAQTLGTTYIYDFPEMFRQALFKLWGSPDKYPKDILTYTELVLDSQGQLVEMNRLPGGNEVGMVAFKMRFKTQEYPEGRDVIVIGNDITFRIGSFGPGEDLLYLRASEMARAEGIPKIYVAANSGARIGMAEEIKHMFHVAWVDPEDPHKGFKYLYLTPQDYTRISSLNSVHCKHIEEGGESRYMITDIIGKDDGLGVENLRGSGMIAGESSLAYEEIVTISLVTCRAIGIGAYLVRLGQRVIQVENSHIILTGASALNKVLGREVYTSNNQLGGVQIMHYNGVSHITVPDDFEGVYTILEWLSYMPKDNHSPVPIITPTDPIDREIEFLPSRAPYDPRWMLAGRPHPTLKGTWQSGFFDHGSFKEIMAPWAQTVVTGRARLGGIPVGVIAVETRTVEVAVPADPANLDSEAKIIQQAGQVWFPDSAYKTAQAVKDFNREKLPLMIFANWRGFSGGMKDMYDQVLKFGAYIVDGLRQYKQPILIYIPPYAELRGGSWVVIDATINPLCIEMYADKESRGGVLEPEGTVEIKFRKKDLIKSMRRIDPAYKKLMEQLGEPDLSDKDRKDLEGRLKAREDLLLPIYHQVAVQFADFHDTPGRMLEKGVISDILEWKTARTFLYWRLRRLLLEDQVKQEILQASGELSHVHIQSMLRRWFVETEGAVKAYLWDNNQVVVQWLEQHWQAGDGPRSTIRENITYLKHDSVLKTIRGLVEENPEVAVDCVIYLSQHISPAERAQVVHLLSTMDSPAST
Experimental: To express human ACC2, Sf-9 cells were infected with recombinant baculovirus. After infected cells were disrupted, the filtrated lysate was subjected to Ni-affinity chromatography and anion-exchange chromatography. The fractions containing human ACC2 protein were pooled as recombinant human ACC2 solution.
Recombinant human ACC1 and recombinant human ACC2, which were prepared by the method mentioned above, were preincubated with assay buffer solution (50 mM HEPES-KOH (pH 7.4), 10 mM magnesium chloride, 6-10 mM potassium citrate, 4 mM reduced form of glutathione, 1.5 mg/ml bovine serum albumin) for one hour. Then, 0.2 μL of each this invention compound solution (in DMSO) were dispensed to 384-well microplate, 5 μL of the preincubated enzyme solution and 5 μL of substrate solution (50 mM HEPES-KOH (pH 7.4), 1 mM ATP, 0.8 mM acetyl CoA and 25-50 mM potassium bicarbonate) were added to microplate. After centrifugation and shaking, the reaction mixtures were incubated in a humidified box at room temperature for 1 to 3 hours. After the incubation, the enzyme reactions were stopped by the addition of EDTA. Then, after the samples were cocrystallized with CHCA (α-cyano-4-hydroxy cinnamic acid) matrices on MALDI target plate, by using the matrix assist laser deionization time-of-flight mass spectrometer (MALDI-TOF MS), samples were measured in reflector negative mode. Deprotonated ions of acetyl CoA (AcCoA) of substrate and malonyl CoA (MalCoA) of the reaction product were detected, then, the conversion rates of acetyl CoA to malonyl CoA was calculated by the intensity of [MalCoA-H]-/(Intensity of [MalCoA-H]-+Intensity of [AcCoA-H]-) using each signal strength. […] In addition, potassium citrate concentrations in assay buffer solution, potassium hydrogen carbonate concentrations in substrate solution and incubation time were adjusted by each lot of enzyme.

With `CC(=O)N[C@@H](C)/C=C/c1ccc(Oc2ccc(-c3ccc(C#N)cc3)cc2Cl)nc1` [Compound I-345], the pIC50 under setting [1] was 7.28.

Regarding `CC(=O)N[C@@H](C)/C=C/c1ccc(Oc2ccc(-c3cccc(C#N)c3)cc2Cl)nc1` [Compound I-346], under setting [1], the pIC50 was 6.36.

`CC(=O)N[C@@H](C)/C=C/c1ccc(Oc2ccc(-c3ccccc3C#N)cc2Cl)nc1` [Compound I-347]: the pIC50 under setting [1] was 6.52.

Take `COc1ccc(-c2ccc(Oc3ccc(/C=C/[C@H](C)NC(C)=O)cn3)c(Cl)c2)cn1` [Compound I-348]: the pIC50 under setting [1] was 6.68.

Turning to `CC(=O)N[C@@H](C)/C=C/c1ccc(Oc2ccc(-c3cnoc3)cc2Cl)nc1` [Compound I-349], the pIC50 under setting [1] was 5.18.

With `CC(=O)N[C@@H](C)/C=C/c1ccc(Oc2ccc(C3=CCCCC3)cc2Cl)nc1` [Compound I-350], under setting [1], the negative logarithm of the IC50 (pIC50) is 7.74.

On to `CC(=O)N[C@@H](C)/C=C/c1ccc(Oc2ccc(C3=CCCC3)cc2Cl)nc1` [Compound I-351], for which the pIC50 under setting [1] is 7.38.

Turning to `CC(=O)N[C@@H](C)/C=C/c1ccc(Oc2ccc(C3=CCOCC3)cc2Cl)nc1` [Compound I-352], the pIC50 under setting [1] is 6.62.

In the case of `CC(=O)N[C@@H](C)/C=C/c1ccc(Oc2ccc(C3=CCN(C)CC3)cc2Cl)nc1` [Compound I-353], the pIC50 under setting [1] was 5.59.

For the compound `CC(=O)N[C@@H](C)/C=C/c1ccc(Oc2ccc(C3=CC(C)(C)OC(C)(C)C3)cc2Cl)nc1` [Compound I-354], the pIC50 under setting [1] was 6.77.

For `CC(=O)N[C@@H](C)/C=C/c1ccc(Oc2ccc(C3=CCC4(CC3)CC4)cc2Cl)nc1` [Compound I-355], the negative logarithm of the IC50 (pIC50) under setting [1] was 7.72.

In the case of `CCOc1ccc(NCc2ccc(/C=C/[C@H](C)NC(C)=O)cn2)cc1` [Compound I-356], the pIC50 under setting [1] is 5.27.

For the compound `CC(=O)N[C@@H](C)/C=C/c1ccc(Oc2ccc(C(=O)NCC3CC3)cc2Cl)nc1` [Compound I-357], the negative logarithm of the IC50 (pIC50) under setting [1] is 6.36.

Turning to `CC(=O)N[C@@H](C)/C=C/c1ccc(Oc2ccc(Cc3ccccc3)cc2Cl)nc1` [Compound I-358], under setting [1], the pIC50 is 7.57.

As to `CCC(O)c1ccc(Oc2ccc(/C=C/[C@H](C)NC(C)=O)cn2)c(Cl)c1` (stereo partly shown) [Compound I-359], the pIC50 under setting [1] is 6.64.

`CCSc1ccc(Oc2ccc(/C=C/[C@H](C)NC(C)=O)cn2)c(Cl)c1` [Compound I-360]: the pIC50 under setting [1] was 8.04.

As for `CCOc1cc(F)c(Oc2ccc(/C=C/[C@H](C)NC(C)=O)cn2)c(Cl)c1` [Compound I-361], under setting [1], the pIC50 was 7.44.

Consider `CCS(=O)(=O)c1ccc(Oc2ccc(/C=C/[C@H](C)NC(C)=O)cn2)c(Cl)c1` [Compound I-362], for which the pIC50 under setting [1] is 6.46.

For `CC(=O)N[C@@H](C)/C=C/c1ccc(Oc2ccc(CC(C)C)cc2Cl)nc1` [Compound I-363], the pIC50 under setting [1] is 7.54.

Consider `CC(=O)N[C@@H](C)/C=C/c1ccc(Oc2ccc(SCC(C)C)cc2Cl)nc1` [Compound I-364], for which, under setting [1], the pIC50 was 7.89.

In the case of `CCOc1ccc(Oc2ccc(/C=C(\F)C(C)NC(C)=O)cn2)c(Cl)c1` (stereo not shown) [Compound I-365], the pIC50 under setting [1] was 8.00.

In the case of `CC(=O)NC(C)/C(F)=C/c1ccc(Oc2ccc(OCC3CC3)cc2Cl)nc1` (stereo not shown) [Compound I-366], the pIC50 under setting [1] was 7.82.

Turning to `CC(=O)N[C@@H](C)/C=C/c1ccc(Oc2ccc(S(=O)(=O)CC(C)C)cc2Cl)nc1` [Compound I-367], under setting [1], the pIC50 was 6.85.

As for `CCCc1ccc(Oc2ccc(/C=C/[C@H](C)NC(C)=O)cc2)nc1` [Compound I-368], the negative logarithm of the IC50 (pIC50) under setting [1] was 6.96.

In the case of `CC(=O)N[C@@H](C)/C=C/c1ccc(Oc2ccc(C3(C)CC3)cc2Cl)nc1` [Compound I-369], the negative logarithm of the IC50 (pIC50) under setting [1] was 7.62.

For `CCCc1ncc(Oc2ccc(/C=C/[C@H](C)NC(C)=O)cn2)cc1C` [Compound I-370], the pIC50 under setting [1] is 6.55.

Turning to `CC(=O)N[C@@H](C)/C=C/c1ccc(Oc2ccc(CC(C)(C)C)cc2Cl)nc1` [Compound I-371], under setting [1], the pIC50 was 7.22.

With `CCCc1cc(F)c(Oc2ccc(/C=C/[C@H](C)NC(C)=O)cn2)c(Cl)c1` [Compound I-372], the pIC50 under setting [1] was 7.48.

Consider `CCC(F)c1ccc(Oc2ccc(/C=C/[C@H](C)NC(C)=O)cn2)c(Cl)c1` (stereo partly shown) [Compound I-373], for which the pIC50 under setting [1] was 7.60.

Consider `CCCc1ccc(Oc2ccc(/C=C/[C@H](C)NC(=O)C(=O)OCC)cn2)c(Cl)c1` [Compound I-374], for which the negative logarithm of the IC50 (pIC50) under setting [1] is 6.11.

With `CCCc1ccc(Oc2ccc(/C=C/[C@H](C)NC(=O)COC(C)=O)cn2)c(Cl)c1` [Compound I-375], the pIC50 under setting [1] was 7.24.

In the case of `CC(=O)N[C@@H](C)/C=C/c1ccc(Oc2ccc(-c3ccc(C#N)nc3)cc2Cl)nc1` [Compound I-376], the pIC50 under setting [1] is 5.96.

`CC(=O)N[C@@H](C)/C=C/c1ccc(Oc2ccc(-c3ccc(C#N)cc3)c(Cl)c2)nc1` [Compound I-377]: under setting [1], the pIC50 is 7.41.

As to `CC(=O)N[C@@H](C)/C=C/c1ccc(Oc2ccc(C3=CCC4(CC3)CC4)c(Cl)c2)nc1` [Compound I-378], under setting [1], the negative logarithm of the IC50 (pIC50) was 7.80.

`CC(=O)N[C@@H](C)/C=C/c1cnc(Oc2ccc(OCC3CC3O)cc2Cl)nc1` (stereo partly shown) [Compound I-379]: the negative logarithm of the IC50 (pIC50) was 5.43.

For `CC(=O)N[C@@H](C)/C=C/c1ccc(Oc2ccc(CC3CC3)cc2Cl)nc1` [Compound I-380], the negative logarithm of the IC50 (pIC50) is 7.66.

As for `CC(=O)N[C@@H](C)/C=C/c1cc(Oc2ccc(OCC3CC3)cc2Cl)no1` [Compound I-381], the pIC50 is 6.44.

With `CC(=O)N[C@@H](C)/C=C/c1ccc(Oc2ccc(N3CCOCC3)cc2Cl)nc1` [Compound I-382], the pIC50 was 5.89.

In the case of `CC(=O)N[C@@H](C)/C=C/c1ccc(Oc2ccc(N3CCCCC3)cc2Cl)nc1` [Compound I-383], the negative logarithm of the IC50 (pIC50) is 7.54.

For `CCCc1ccc(Oc2ccc(/C=C/[C@H](C)NC(=O)CO)cn2)c(Cl)c1` [Compound I-384], the pIC50 was 6.55.

In the case of `CCCc1cc(Cl)c(Oc2ccc(/C=C/[C@H](C)NC(C)=O)cn2)c(Cl)c1` [Compound I-385], the pIC50 was 6.80.

Consider `CCCc1ccc(Oc2ccc(/C=C/[C@H](C)NC(=O)CNC(=O)OC(C)(C)C)cn2)c(Cl)c1` [Compound I-386], for which the pIC50 is 6.40.

For `CCCc1cc(Cl)c(Oc2ccc(/C=C/[C@H](C)NC(N)=O)cn2)c(Cl)c1` [Compound I-387], the negative logarithm of the IC50 (pIC50) is 6.25.

For `CCCn1cc(Oc2ccc(/C=C/[C@H](C)NC(C)=O)cn2)cn1` [Compound I-388], the pIC50 is 5.70.

With `CCC(F)(F)c1ccc(Oc2ccc(/C=C/[C@H](C)NC(C)=O)cn2)c(Cl)c1` [Compound I-389], the pIC50 is 7.62.

On to `CCCc1ccc(Oc2ccc(/C=C/[C@H](C)NC(=O)c3ccnc(C(=O)NCCO)c3)cn2)c(Cl)c1` [Compound I-391], for which the pIC50 is 7.33.

Take `CCCc1ccc(Oc2ccc(/C=C/[C@H](C)NC(=O)CNC(C)=O)cn2)c(Cl)c1` [Compound I-392]: the pIC50 is 6.01.

With `CCC(F)(F)c1ccc(Oc2ccc(/C=C/[C@H](C)NC(N)=O)cn2)c(Cl)c1` [Compound I-393], the pIC50 was 7.32.

For the compound `COc1c(OCC2CC2)ccc(Oc2cnc(/C=C/[C@H](C)NC(C)=O)cn2)c1Cl` [Compound I-394], the pIC50 is 7.92.

In the case of `CC(=O)N[C@@H](C)/C=C/c1cc(Oc2ccc(OCC3CC3)cc2Cl)nn1C` [Compound I-395], the pIC50 is 5.38.

Take `CC(=O)N[C@@H](C)/C=C/c1ccc(Oc2ccc(C(F)(F)C(C)C)cc2Cl)nc1` [Compound I-396]: the pIC50 was 7.26.

Consider `CC(=O)N[C@@H](C)/C=C/c1ccc(Oc2ccc3c(c2)CCC3)nc1` [Compound I-397], for which the pIC50 is 7.82.

`CC(=O)N[C@@H](C)/C=C/c1ccc(Oc2ccc3c(c2)CCCC3)nc1` [Compound I-398]: the pIC50 was 7.37.

In the case of `CC(C)C(F)(F)c1ccc(Oc2ccc(/C=C/[C@H](C)NC(N)=O)cn2)c(Cl)c1` [Compound I-399], the pIC50 is 7.17.

Turning to `CCC1(c2ccc(Oc3ccc(/C=C/[C@H](C)NC(C)=O)cn3)c(Cl)c2)COC1` [Compound I-400], the pIC50 was 5.49.

`CC(=O)N[C@@H](C)/C=C/c1ccc(Oc2ccc(C3CCC3)cc2Cl)nc1` [Compound I-401]: the pIC50 is 7.25.

As to `CC(=O)N[C@@H](C)/C=C/n1cc(Oc2ccc(OCC3CC3)cc2Cl)cn1` [Compound I-402], the pIC50 is 5.96.

As to `CCCc1ccc(Oc2ccc(/C=C/[C@H](C)NC(C)=O)cn2)c(C#N)c1` [Compound I-403], the pIC50 was 6.35.

Turning to `CCCc1ccc(Oc2ccc(/C=C/[C@H](C)NC(C)=O)cn2)cc1C#N` [Compound I-404], the pIC50 is 6.72.

As to `CCCc1ccc(Oc2ccc(/C=C/[C@H](C)NC(=O)CC(=O)OC(C)(C)C)cn2)c(Cl)c1` [Compound I-405], the pIC50 is 5.92.

Consider `CC(=O)N[C@@H](C)/C=C/c1cnc(Oc2cc(O)c(OCC3CC3)cc2Cl)nc1` [Compound I-406], for which the pIC50 was 6.52.

`COc1cc(Oc2ncc(/C=C/[C@H](C)NC(C)=O)cn2)c(Cl)cc1OCC1CC1` [Compound I-407]: the pIC50 is 5.68.

In the case of `CCCc1ccc(Oc2ccc(/C=C/[C@H](C)NC(C)=O)cn2)c(-c2ccccc2)c1` [Compound I-408], the pIC50 is 5.64.

As to `CC(=O)N[C@@H](C)/C=C/c1ccc(Oc2ccc(C(C)(C)C(F)(F)F)cc2Cl)nc1` [Compound I-409], the pIC50 was 7.60.

As to `CCOc1ccc(Oc2ccc(/C=C/[C@H](C)CC(=O)NC)cn2)c(Cl)c1` [Compound I-410], the pIC50 was 6.82.

Turning to `CCCc1ccc(Oc2ncc(/C=C/[C@H](C)NC(C)=O)s2)c(Cl)c1` [Compound I-411], the pIC50 was 7.11.

Consider `CC(=O)N[C@@H](C)/C=C/c1ccc(Oc2ccc(-c3cnccn3)cc2Cl)nc1` [Compound I-412], for which the pIC50 is 6.70.

`CC(=O)N[C@@H](C)/C=C/c1ccc(Oc2ccc(-c3nc4ccccc4o3)cc2Cl)nc1` [Compound I-414]: the pIC50 was 7.44.

Regarding `CC(=O)N[C@@H](C)/C=C/c1ccc(Oc2ccc(-c3nc4ccccc4s3)cc2Cl)nc1` [Compound I-415], the pIC50 is 6.92.

Consider `CC(=O)N[C@@H](C)/C=C/c1ccc(Oc2ccc(-c3nccs3)cc2Cl)nc1` [Compound I-416], for which the pIC50 is 6.77.
